Results taken from article PMC4468608, “A distinct p53 target gene set predicts for response to the selective p53–HDM2 inhibitor NVP-CGM097” (eLife, 2015).
Where two headings read alike, the source gives them in different places.

Test system: cell lines from the Cancer Cell Line Encyclopedia (CCLE)
Assay: High-throughput cell viability assay, CCLE cell line panel (n = 356)
Type: cell-based, human
Conditions: Homo sapiens
Experimental: Cell lines were partitioned into sensitive and insensitive groups based on compound potency (IC50). […] All other cell lines were obtained from ATCC (American Type Culture Collection), DSMZ (Deutsche Sammlung von Mikroorganismen und Zellkulturen), and HSRRB (Health Science Research Resources Bank) and cultured in RPMI or Dulbecco's modified Eagle's medium plus 10% FBS (Invitrogen, Carlsbad, CA) at 37°C, 5% CO2.

COc1cc2c(cc1OC(C)C)[C@H](c1ccc(Cl)cc1)N(c1ccc(N(C)C[C@H]3CC[C@H](N4CCNC(=O)C4)CC3)cc1)C(=O)C2 [NVP-CFC218]
IC50 (PC-3, TP53 MUT): > 8 µM
IC50 (PC-14, PC-14, TP53 MUT): > 8 µM
IC50 (PE/CA-PJ34 (clone C12), TP53 MUT): > 8 µM
IC50 (PE/CA-PJ49, TP53 WT): > 8 µM
IC50 (PK-1, TP53 MUT): > 8 µM
IC50 (PK-45H, TP53 WT): > 8 µM
IC50 (PL-21, PL-21, TP53 MUT): > 8 µM
IC50 (PSN1, PSN1, TP53 MUT): > 8 µM
IC50 (PaTu 8902, PA-TU-8902, TP53 MUT): > 8 µM
IC50 (Panc 04.03, Panc 04.03, TP53 MUT): > 8 µM
IC50 (QGP-1, QGP-1, TP53 WT): > 8 µM
IC50 (RCM-1, RCM-1, TP53 MUT): > 8 µM
IC50 (RERF-GC-1B, TP53 MUT): > 8 µM
IC50 (RERF-LC-AI, TP53 WT): > 8 µM
IC50 (RERF-LC-MS, TP53 MUT): > 8 µM
IC50 (RKO, TP53 WT): 6.44 µM
IC50 (RPMI 8402, RPMI-8402, TP53 MUT): > 8 µM
IC50 (RT-112, RT-112, TP53 MUT): > 8 µM
IC50 (Raji, TP53 MUT): > 8 µM
IC50 (Reh, TP53 WT): 2.63 µM
IC50 (S-117, S-117, TP53 MUT): > 8 µM
IC50 (SBC-5, SBC-5, TP53 MUT): > 8 µM
IC50 (SCC-4, SCC-4, TP53 MUT): > 8 µM
IC50 (SCC-9, SCC-9, TP53 MUT): > 8 µM
IC50 (SCC-25, SCC-25, TP53 MUT): > 8 µM
IC50 (SCaBER, read-out: NVP- CFC218 IC50 (µM), cell line SCaBER, urinary_tract, TP53 MUT): > 8 µM
IC50 (SF-295, SF-295, TP53 MUT): > 8 µM
IC50 (SH-10-TC, TP53 MUT): > 8 µM
IC50 (SHP77, SHP-77, TP53 MUT): > 8 µM
IC50 (SJRH30, SJRH30, TP53 MUT): > 8 µM
IC50 (SK-BR-3, SK-BR-3, TP53 MUT): > 8 µM
IC50 (SK-HEP1, read-out: NVP- CFC218 IC50 (µM), cell line SK-HEP-1, liver, TP53 WT): > 8 µM
IC50 (SK-LMS-1, SK-LMS-1, TP53 MUT): > 8 µM
IC50 (SK-LU-1, SK-LU-1, TP53 MUT): > 8 µM
IC50 (SK-MEL-5, read-out: NVP- CFC218 IC50 (µM), cell line SK-MEL-5, skin, TP53 WT): > 8 µM
IC50 (SK-MEL-24, read-out: NVP- CFC218 IC50 (µM), cell line SK-MEL-24, skin, TP53 WT): > 8 µM
IC50 (SK-MEL-30, SK-MEL-30, TP53 MUT): > 8 µM
IC50 (SK-MES-1, SK-MES-1, TP53 MUT): > 8 µM
IC50 (SK-N-AS, TP53 WT): > 8 µM
IC50 (SK-N-FI, TP53 MUT): > 8 µM
IC50 (SK-OV-3, SK-OV-3, TP53 MUT): > 8 µM
IC50 (SNU-182, SNU-182, TP53 MUT): > 8 µM
IC50 (SNU-423, read-out: NVP- CFC218 IC50 (µM), cell line SNU-423, liver, TP53 MUT): > 8 µM
IC50 (SNU-475, SNU-475, TP53 MUT): > 8 µM
IC50 (SU-DHL-4, SU-DHL-4, TP53 MUT): > 8 µM
IC50 (SU-DHL-8, SU-DHL-8, TP53 MUT): > 8 µM
IC50 (SUP-M2, SUP-M2, TP53 WT): 1.01 µM
IC50 (SW480, SW480, TP53 MUT): > 8 µM
IC50 (SW579, SW579, TP53 MUT): > 8 µM
IC50 (SW780, read-out: NVP- CFC218 IC50 (µM), cell line SW 780, urinary_tract, TP53 WT): > 8 µM
IC50 (SW900, SW 900, TP53 MUT): > 8 µM
IC50 (SW1271, SW 1271, TP53 MUT): > 8 µM
IC50 (SW1353, SW 1353, TP53 MUT): 4.91 µM
IC50 (SW1417, SW1417, TP53 MUT): > 8 µM
IC50 (SW1573, read-out: NVP- CFC218 IC50 (µM), cell line SW 1573, lung, TP53 WT): > 8 µM
IC50 (SW1783, SW 1783, TP53 MUT): > 8 µM
IC50 (SW1990, SW 1990, TP53 MUT): > 8 µM
IC50 (SW-403, read-out: NVP- CFC218 IC50 (µM), cell line SW403, large_intestine, TP53 MUT): > 8 µM
IC50 (T98G, TP53 MUT): > 8 µM
IC50 (TE 617.T, TP53 WT): 2.91 µM
IC50 (TE-1, TP53 MUT): > 8 µM
IC50 (TE-5, TP53 MUT): > 8 µM
IC50 (TE-11, read-out: NVP- CFC218 IC50 (µM), cell line TE-11, oesophagus, TP53 MUT): > 8 µM
IC50 (TOV21G, TOV-21G, TP53 WT): 5.41 µM
IC50 (TT2609-C02, TP53 MUT): > 8 µM
IC50 (U-87 MG, TP53 WT): > 8 µM
IC50 (U-937, U-937, TP53 MUT): > 8 µM
IC50 (UMUC3, read-out: NVP- CFC218 IC50 (µM), cell line UM-UC-3, urinary_tract, TP53 MUT): > 8 µM
IC50 (VMRC-RCZ, TP53 WT): > 8 µM
IC50 (WM 266-4, WM-266-4, TP53 WT): 1.46 µM
IC50 (WM983B, WM-983B, TP53 MUT): > 8 µM
IC50 (WM-115, WM-115, TP53 WT): 3.38 µM
IC50 (WSUDLCL2, WSU-DLCL2, TP53 MUT): > 8 µM
IC50 (YKG-1, YKG1, TP53 MUT): > 8 µM
IC50 (read-out: NVP- CFC218 IC50 (µM), cell line BICR 31, upper_aerodigestive_tract, TP53 MUT): > 8 µM
IC50 (read-out: NVP- CFC218 IC50 (µM), cell line C3A, liver, TP53 WT): > 8 µM
IC50 (read-out: NVP- CFC218 IC50 (µM), cell line C32, skin, TP53 WT): > 8 µM
IC50 (read-out: NVP- CFC218 IC50 (µM), cell line CCK-81, large_intestine, TP53 MUT): > 8 µM
IC50 (read-out: NVP- CFC218 IC50 (µM), cell line ES-2, ovary, TP53 MUT): > 8 µM
IC50 (read-out: NVP- CFC218 IC50 (µM), cell line HEC-108, endometrium, TP53 MUT): > 8 µM
IC50 (read-out: NVP- CFC218 IC50 (µM), cell line HEC-265, endometrium, TP53 WT): > 8 µM
IC50 (read-out: NVP- CFC218 IC50 (µM), cell line Hs 618.T, lung, TP53 WT): > 8 µM
IC50 (read-out: NVP- CFC218 IC50 (µM), cell line Hs 888.T, bone, TP53 WT): > 8 µM
IC50 (read-out: NVP- CFC218 IC50 (µM), cell line Hs 944.T, skin, TP53 WT): > 8 µM
IC50 (read-out: NVP- CFC218 IC50 (µM), cell line JHOS-2, ovary, TP53 MUT): > 8 µM
